Among the data in patent US10538521B2, “Pyrimidine derivative having antimalarial activity” (CARNA BIOSCIENCES, INC., priority 2016, dated 2020) are IC50 values, retold here.

The IC50 is the concentration that gives 50% inhibition.

Some results are limits rather than exact numbers.

Experiment [1] relates to FCR3 strain, a drug sensitive strain of Plasmodium falciparum. As to the kind of experiment: In vitro antimalarial assay (p-LDH, Malstat), FCR3 strain. It is filed as cell-based. The conditions noted are these: P. falciparum FCR3 (drug sensitive), 72 h culture, p-LDH readout, read-out: Antimalarial activity (IC50 value), Strain FCR3. Summed up: (§1)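 IC50 derived from concentration-response of parasite lactate dehydrogenase signal (Malstat reagent, NBT/PES formazan at 655 nm) after freeze-thaw lysis. Infected erythrocytes (hematocrit 2%, parasitaemia 0.5 or 1%) exposed 72 h to 12.5–0.0001 μM final compound under 3% O2-4% CO2-93% N2, FCR3 and K1 alike.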

Experiment [2] relates to K1 strain, a drug resistant strain of Plasmodium falciparum. As to the kind of experiment: In vitro antimalarial assay (p-LDH, Malstat), K1 strain. It is filed as cell-based. The conditions noted are these: P. falciparum K1 (drug resistant), 72 h culture, p-LDH readout, read-out: Antimalarial activity (IC50 value), Strain K1. Summed up: as §1

For the compound `CCCc1ccnc(Nc2nc(Nc3ccn4ccnc4c3)cc(N3CCCCC3)n2)c1` [Example 75, N4-(imidazo[1,2-a]pyridin-7-yl)-6-(piperidin-1-yl)-N2-(4-propylpyridin-2-yl)pyrimidine-2,4-diamine], the IC50 in experiment [1] is < 100 nM; in experiment [2] it was 100 to 1000 nM.
`FC(F)(F)COc1ccc(Nc2nc(Nc3ccn4ccnc4c3)cc(N3CCOCC3)n2)cn1` [Example 77, N4-(imidazo[1,2-a]pyridin-7-yl)-6-morpholino-N2-(6-(2,2,2-trifluoroethoxy)pyridin-3-yl) pyrimidine-2,4-diamine]: the IC50 is < 100 nM in experiment [1] and 100 to 1000 nM in experiment [2].
The corresponding values for `FC(F)Oc1ccc(Nc2nc(Nc3ccn4ccnc4c3)cc(N3CCOCC3)n2)cn1` [Example 78, N2-(6-(difluoromethoxy)pyridin-3-yl)-N4-(imidazo[1,2-a]pyridin-7-yl)-6-morpholinopyrimidine-2,4-diamine] are < 100 nM and 100 to 1000 nM.
As to `Cc1ccc(Nc2nc(Nc3ccn4ccnc4c3)cc(N3CCCCC3)n2)cn1` [Example 79, N4-(imidazo[1,2-a]pyridin-7-yl)-N2-(6-methylpyridin-3-yl)-6-(piperidin-1-yl)pyrimidine-2,4-diamine], the IC50 in experiment [1] and in experiment [2] was 100 to 1000 nM throughout.
With `c1cn2ccc(Nc3cc(N4CCOCC4)nc(Nc4ccc(OC5CCC5)nc4)n3)cc2n1` [Example 80, N2-(6-cyclobutoxypyridin-3-yl)-N4-(imidazo[1,2-a]pyridin-7-yl)-6-morpholinopyrimidine-2,4-diamine], the IC50 in experiment [1] and in experiment [2] was 100 to 1000 nM throughout.
Turning to `c1cn2ccc(Nc3cc(N4CCOCC4)nc(Nc4ccc(OC5CCCCC5)nc4)n3)cc2n1` [Example 81, N2-(6-(cyclohexyloxy)pyridin-3-yl)-N4-(imidazo[1,2-a]pyridin-7-yl)-6-morpholinopyrimidine-2,4-diamine], the half-maximal inhibitory concentration (IC50) in experiment [1] and in experiment [2] was 100 to 1000 nM each time.
As to `c1cn2ccc(Nc3cc(N4CCOCC4)nc(Nc4ccc(OC5CCOCC5)nc4)n3)cc2n1` [Example 82, N4-(imidazo[1,2-a]pyridin-7-yl)-6-morpholino-N2-(6-((tetrahydro-2H-pyran-4-yl)oxy)pyridin-3-yl)pyrimidine-2,4-diamine], the IC50 in experiment [1] and in experiment [2] was 100 to 1000 nM each time.
Turning to `Cc1ccc(Nc2nc(Nc3ccn4ccnc4c3)cc(N(C)C)n2)cn1` [Example 83, N4-(imidazo[1,2-a]pyridin-7-yl)-N6,N6-dimethyl-N2-(6-methylpyridin-3-yl)pyrimidine-2,4,6-triamine], the IC50 lay in the range of 100 to 1000 nM in experiment [1] and 1000 to 10000 nM in experiment [2].
Take `Cc1cc(C)nc(Nc2nc(Nc3ccn4ccnc4c3)cc(N(C)C)n2)c1` [Example 84, N2-(4,6-dimethylpyridin-2-yl)-N4-(imidazo[1,2-a]pyridin-7-yl)-N6,N6-dimethylpyrimidine-2,4,6-triamine]: the IC50 in experiment [1] and in experiment [2] was < 100 nM throughout.
Consider `Cc1ccc(Nc2nc(N)cc(Nc3ccn4ccnc4c3)n2)cn1` [Example 85, N4-(imidazo[1,2-a]pyridin-7-yl)-N2-(6-methylpyridin-3-yl) pyrimidine-2,4,6-triamine], for which the IC50 in experiment [1] and in experiment [2] was 1000 to 10000 nM throughout.
As for `COc1cc(Nc2ccn3ccnc3c2)nc(Nc2cc(C)cc(C)n2)n1` [Example 86, N2-(4,6-dimethylpyridin-2-yl)-N4-(imidazo[1,2-a]pyridin-7-yl)-6-methoxypyrimidine-2,4-diamine], the IC50 in experiment [1] and in experiment [2] was 100 to 1000 nM in each case.
With `Cc1ccc(Nc2nc(Nc3ccn4ccnc4c3)cc(N3CCOCC3)n2)nc1C` [Example 87, N2-(5,6-dimethylpyridin-2-yl)-N4-(imidazo[1,2-a]pyridin-7-yl)-6-morpholinopyrimidine-2,4-diamine], the IC50 in experiment [1] and in experiment [2] was < 100 nM each time.
